Measurements as given in article PMC8954547, “Nonpeptidic Z360-Analogs Tagged with Trivalent Radiometals as Anti-CCK2R Cancer Theranostic Agents: A Preclinical Study” (Pharmaceutics, 2022).
Where “and” joins values, the source holds several entries; their conditions need not be identical. Identical values can stand only once.

Experiments:
[1] = system: SCID mice bearing twin HEK293-CCK2i4svR and wtHEK293 tumors; assay: Biodistribution in SCID mice bearing twin HEK293-CCK2i4svR and wtHEK293 xenografts; format: in vivo
How it was run: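 Uptake is expressed as %IA/g (mean ± SD, n = 4) from gamma counting of blood, organs and tumours collected at set times: 1, 4 and 24 h pi for ^67Ga, 4 and 24 h for ^111In (±gelofusine), 4–96 h for ^177Lu. Radioligands were given iv at 7–40 pmol to SCID mice bearing twin CCK2i4svR-transfected and wild-type HEK293 xenografts.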

[2] = Radioligand stability in mice (radio-HPLC of blood and urine); format: in vivo; conditions: mice blood collected 5 min pi; mean ± SD
Method: The formation of radiometabolites which can be detected in the blood was tested in blood samples collected 5 min post-injection (pi) of each of the radioligands [^67Ga]Ga/[^111In]In/[^177Lu]Lu-GAS1/3 and [^67Ga]Ga/[^111In]In-GAS2. For this study, in-house male Swiss albino mice (body weight: 30 ± 5 g, provided by the NCSR “Demokritos” Animal House) were used in groups of three. The animals received, through the tail vein, a 100-μL bolus containing each radioligand tested (2.5–3 nmol of the total conjugate in vehicle: saline/EtOH 9/1 v/v, corresponding to: up to 11 MBq for In-111, up to 13 MBq for Ga-67 and up to 74 MBq for Lu-177). Mice were euthanized, and blood was collected directly from the heart using a prechilled penicillin syringe and transferred in a prechilled EDTA-containing Eppendorf Protein LoBind® tube on ice (40 µL, 50 mM Na2EDTA solution). After centrifugation (10 min, 2000× g/4 °C, in a Hettich, Universal 320R, centrifuge), the blood plasma was collected, mixed with chilled MeCN in a 1/1 v/v ratio and centrifuged again (10 min, 15,000× g/4 °C). Supernatants were collected and concentrated to a small volume (≈50–100 μL) under a gentle N2-flux at 40 °C. They were then diluted with physiological saline (≈400 μL) and filtered through a Millex GV filter (0.22 μm, 13 mm Ø, Millipore, Milford, CT, USA). Aliquots of the filtrate were analyzed by radio-RP-HPLC using a Waters Symmetry Shield RP18 cartridge column (5 μm, 3.9 mm × 20 mm) eluted at a flow rate of 1.0 mL/min with the following gradient: 100% A/0% B to 55% A/45% B in 45 min; A = 0.1% aqueous TFA (v/v) and B = MeCN (system 2). The elution time (tR) of each parent radioligand was determined by coinjection of blood samples with an aliquot of the labeling solution on the HPLC column. Results were calculated as the average percentage of intact radioligand ± SD derived from three independent experiments.
Following the same injection protocol, radioligands were administered in additional groups of mice, but this time animals were euthanized 30 min pi. The urine was immediately collected from the bladder using a prechilled syringe and transferred as before in a prechilled EDTA-containing Eppendorf Protein LoBind® centrifuge tube on ice (40 µL, 50 mM Na2EDTA solution) and 0.1 mL of physiological saline. Urine proteins were precipitated by adding chilled MeCN in a 1/1 v/v ratio followed by a 10 min centrifugation step (15,000× g/4 °C). The supernatant was then collected and treated following the blood sample workup procedure. Aliquots of the Millex-GV filtrate (containing >90% of total urine activity) were analyzed by radio-HPLC, adopting the aforementioned conditions. Results were calculated as the average percentage of intact radioligand ± SD derived from three independent experiments.

[3] = system: HEK293-CCK2i4svR and wtHEK293 xenografts; assay: SPECT/CT of HEK293-CCK2i4svR and wtHEK293 xenografts; format: in vivo, mice; conditions: 4 h and 24 h pi
Method: For SPECT/CT imaging, six mice bearing twin HEK293-CCK2i4svR and wtHEK293 tumors were injected in the tail vein with a bolus containing [^111In]In-GAS1/2/3 (100 μL, 9–12 MBq associated with 3 nmol total injected analog in-vehicle: saline/EtOH 9/1 v/v). Mice were euthanized at 4 h and 24 h pi. Tomographic SPECT/CT imaging was performed with the y-CUBE/x-CUBE systems (Molecubes, Belgium). The SPECT system is based on monolithic NaI detectors attached to SiPMs, with a 0.6 mm intrinsic resolution. The CT system is based on a structured CMOS detector of CsI with pixels of 75 µm and operates between 35–80 kVp, 10–500 µA tube current, with a 33 µm fixed focal spot size. SPECT scans were acquired 4 h pi and 24 h pi, with a 40–50 min duration protocol based on the injected activity, and each SPECT scan was succeeded by a CT scan, following General-Purpose protocol under 50 kVp, for co-registration purposes. SPECT images were reconstructed using the MLEM reconstruction method with a 250 µm voxel size and 500 iterations. CT images were reconstructed using the ISRA reconstruction method with a 100 µm voxel size.
Images were exported and post-processed on VivoQuant software, version 4.0 (Invicro, Boston). A smoothing median filter (0.6 mm, spherical window) was applied to the images, and the bladder was removed for consistency purposes. Normalization of images was performed (i.e., all images having the same color scale range values) to achieve a direct visual comparison between the different groups.

[4] = 4 h + Gelo (Gelofusine-treated mice)
[5] = 24 h + Gelo (Gelofusine-treated mice)

SMILES: CC(C)(C)C(=O)CN1C(=O)[C@H](NC(=O)Nc2cccc(C(=O)NCCOCCOCCOCCNC(=O)[C@@H](CCC(=O)O)NC(=O)CCC(C(=O)[O-])N3CCN(CC(=O)[O-])CCN(CC(=O)[O-])CC3)c2)CN(C2CCCCC2)c2ccccc21.[111In+3] (stereo partly drawn) [[^111In]In-GAS2]
- Biodistribution, Blood [1, 4]: 6.29 ± 1.08 %IA/g
- Biodistribution, CCK2i4svR(+) Tumor [1, 4]: 7.67 ± 0.61 %IA/g
- Biodistribution, CCK2i4svR(-) Tumor [1, 4]: 1.72 ± 0.30 %IA/g
- Biodistribution, Femur [1, 4]: 0.99 ± 0.17 %IA/g
- Biodistribution, Heart [1, 4]: 1.42 ± 0.21 %IA/g
- Biodistribution, Intestines [1, 4]: 9.48 ± 0.99 %IA/g
- Biodistribution, Kidneys [1, 4]: 21.90 ± 3.97 %IA/g
- Biodistribution, Liver [1, 4]: 4.56 ± 0.49 %IA/g
- Biodistribution, Muscle [1, 4]: 0.47 ± 0.04 %IA/g
- Biodistribution, Pancreas [1, 4]: 3.00 ± 0.58 %IA/g
- Biodistribution, Spleen [1, 4]: 1.32 ± 0.20 %IA/g
- Biodistribution, Stomach [1, 4]: 0.94 ± 0.15 %IA/g
- Biodistribution, Blood ([1]; 4 h pi): 6.40 ± 0.75 %IA/g
- Biodistribution, CCK2i4svR(+) Tumor ([1]; 4 h pi): 8.91 ± 1.59 %IA/g
- Biodistribution, CCK2i4svR(-) Tumor ([1]; 4 h pi): 1.82 ± 0.25 %IA/g
- Biodistribution, Femur ([1]; 4 h pi): 1.15 ± 0.10 %IA/g
- Biodistribution, Heart ([1]; 4 h pi): 1.61 ± 0.23 %IA/g
- Biodistribution, Intestines ([1]; 4 h pi): 9.71 ± 0.42 %IA/g
- Biodistribution, Kidneys ([1]; 4 h pi): 29.55 ± 3.64 %IA/g
- Biodistribution, Liver ([1]; 4 h pi): 5.42 ± 0.89 %IA/g
- Biodistribution, Lungs ([1]; 4 h pi): 3.27 ± 0.46 %IA/g
- Biodistribution, Muscle ([1]; 4 h pi): 0.56 ± 0.08 %IA/g
- Biodistribution, Pancreas ([1]; 4 h pi): 2.99 ± 0.96 %IA/g
- Biodistribution, Spleen ([1]; 4 h pi): 1.49 ± 0.14 %IA/g
- Biodistribution, Stomach ([1]; 4 h pi): 1.31 ± 0.21 %IA/g
- Biodistribution, Blood [1, 5]: 0.15 ± 0.02 %IA/g
- Biodistribution, CCK2i4svR(+) Tumor [1, 5]: 2.92 ± 0.37 %IA/g
- Biodistribution, CCK2i4svR(-) Tumor [1, 5]: 0.45 ± 0.09 %IA/g
- Biodistribution, Femur [1, 5]: 0.25 ± 0.03 %IA/g
- Biodistribution, Heart [1, 5]: 0.22 ± 0.03 %IA/g
- Biodistribution, Intestines [1, 5]: 0.75 ± 0.06 %IA/g
- Biodistribution, Kidneys [1, 5]: 11.51 ± 2.64 %IA/g
- Biodistribution, Liver [1, 5]: 0.95 ± 0.12 %IA/g
- Biodistribution, Lungs [1, 5]: 0.44 ± 0.07 %IA/g
- Biodistribution, Muscle [1, 5]: 0.08± 0.01 %IA/g
- Biodistribution, Pancreas [1, 5]: 0.30 ± 0.05 %IA/g
- Biodistribution, Spleen [1, 5]: 0.56 ± 0.17 %IA/g
- Biodistribution, Stomach [1, 5]: 0.35 ± 0.06 %IA/g
- Biodistribution, Blood ([1]; 24 h pi): 0.13 ± 0.02 %IA/g
- Biodistribution, CCK2i4svR(+) Tumor ([1]; 24 h pi): 2.78 ± 0.43 %IA/g
- Biodistribution, CCK2i4svR(-) Tumor ([1]; 24 h pi): 0.41 ± 0.10 %IA/g
- Biodistribution, Femur ([1]; 24 h pi): 0.24 ± 0.04 %IA/g
- Biodistribution, Heart ([1]; 24 h pi): 0.22 ± 0.01 %IA/g
- Biodistribution, Intestines ([1]; 24 h pi): 0.68 ± 0.15 %IA/g
- Biodistribution, Kidneys ([1]; 24 h pi): 10.16 ± 2.30 %IA/g
- Biodistribution, Liver ([1]; 24 h pi): 0.96 ± 0.22 %IA/g
- Biodistribution, Lungs ([1]; 24 h pi): 0.60 ± 0.37 %IA/g
- Biodistribution, Muscle ([1]; 24 h pi): 0.08 ± 0.01 %IA/g
- Biodistribution, Pancreas ([1]; 24 h pi): 0.29 ± 0.03 %IA/g
- Biodistribution, Spleen ([1]; 24 h pi): 0.51 ± 0.09 %IA/g
- Biodistribution, Stomach ([1]; 24 h pi): 0.36 ± 0.14 %IA/g
- Intact radioligand in blood [2]: 73.1 ± 1.8% and 73.1 ± 1.8 (3) % and 98.3 ± 0.3 (3) %
- SPECT/CT uptake in CCK2i4svR expressing tumors [3]: Intense uptake
- SPECT/CT uptake in wtHEK293 tumors devoid of CCK2i4svR expression [3]: no uptake is evident
